Tests used:
[1] = tested on: deadnettle; test: Test D postemergence; type: in vivo, Lamium amplexicaule; details: Lamium amplexicaule, post-emergence
Text: (§1) Seeds of plant species selected from bluegrass (annual bluegrass, Poa annua), blackgrass (Alopecurus myosuroides), canarygrass (littleseed canarygrass, Phalaris minor), chickweed (common chickweed, Stellaria media), galium (catchweed bedstraw, Galium aparine), bromegrass, downy (downy bromegrass, Bromus tectorum), field poppy (Papaver rhoeas), field violet (Viola arvensis), green foxtail (Setaria viridis), deadnettle (henbit deadnettle, Lamium amplexicaule), Italian ryegrass (Lolium multiflorum), kochia (Kochia scoparia), lambsquarters (Chenopodium album), oilseed rape (Brassica napus), pigweed (Amaranthus retroflexus), chamomile (scentless chamomile, Matricaria inodora), Russian thistle (Salsola kali), speedwell (bird's-eye speedwell, Veronica persica), spring barley (Hordeum vulgare), spring wheat (Triticum aestivum), wild buckwheat (Polygonum convolvulus), wild mustard (Sinapis arvensis), wild oat (Avena fatua), wild radish (Raphanus raphanistrum), windgrass (Apera spica-venti), winter barley (Hordeum vulgare), and winter wheat (Triticum aestivum) were planted into a silt loam soil and treated preemergence with test chemicals formulated in a non-phytotoxic solvent mixture which included a surfactant.
(§2) At the same time, these species were planted in pots containing Redi-Earth® planting medium (Scotts Company, 14111 Scottslawn Road, Marysville, Ohio 43041) comprising spaghnum peat moss, vermiculite, wetting agent and starter nutrients and treated with postemergence applications of the test chemicals formulated in the same manner. Plants ranged in height from 2 to 18 cm (1- to 4-leaf stage). Treated plants and controls were maintained in a controlled growth environment for 7 to 21 days after which time all species were compared to controls and visually evaluated. Plant response ratings, summarized in Table D, are based on a scale of 0 to 100 where 0 is no effect and 100 is complete control. A dash (-) response means no test result.

[2] = tested on: speedwell; test: Test D preemergence; type: in vivo, Veronica persica; details: Veronica persica, pre-emergence
Text: as §1, §2

[3] = tested on: wild buckwheat; test: Test D preemergence; type: in vivo, Polygonum convolvulus; details: Fallopia convolvulus, pre-emergence
Text: as §1, §2

[4] = tested on: pigweed; test: Test D postemergence; type: in vivo, Amaranthus retroflexus; details: Amaranthus retroflexus, post-emergence
Text: as §1, §2

[5] = tested on: bluegrass; test: Test D postemergence; type: in vivo, Poa annua; details: Poa annua, post-emergence, Postemergence, scale 0 to 100 (0 no effect, 100 complete control), read-out: Plant response rating, Bluegrass
Text: as §1, §2

[6] = tested on: bromegrass, downy; test: Test D postemergence; type: in vivo, Bromus tectorum; details: Bromus tectorum, post-emergence, Postemergence, scale 0 to 100 (0 no effect, 100 complete control), read-out: Plant response rating, Bromegrass, Downy
Text: as §1, §2

[7] = tested on: oilseed rape; test: Test D preemergence; type: in vivo, Brassica napus; details: Brassica napus, pre-emergence
Text: as §1, §2

[8] = tested on: wild mustard; test: Test D postemergence; type: in vivo, Sinapis arvensis; details: Brassica, post-emergence
Text: as §1, §2

[9] = tested on: bluegrass; test: Test D preemergence; type: in vivo, Poa annua; details: Poa annua, pre-emergence
Text: as §1, §2

[10] = tested on: Italian ryegrass; test: Test D postemergence; type: in vivo, Lolium multiflorum; details: Lolium multiflorum, post-emergence
Text: as §1, §2

[11] = tested on: wild buckwheat; test: Test D postemergence; type: in vivo, Polygonum convolvulus; details: Fallopia convolvulus, post-emergence, Postemergence, scale 0 to 100 (0 no effect, 100 complete control), read-out: Plant response rating, Buckwheat, Wild
Text: as §1, §2

**Q.** How did the pest or weed control at 16 g/ha ([1]; 16 g ai/ha, scale 0-100, read-out: Plant response rating, Deadnettle) turn out when `FC(F)(F)COc1cnn(-c2ccccc2Oc2ncc(Cl)cn2)c1` [Compound 138, 5-chloro-2-[2-[4-(2,2,2-trifluoroethoxy)-1H-pyrazol-1-yl]phenoxy]pyrimidine] was run?
**A.** The pest or weed control at 16 g/ha was 5%.

**Q.** What about the pest or weed control at 31 g/ha ([1]; 31 g ai/ha, scale 0 to 100 (0 no effect, 100 complete control), read-out: Plant response rating, Deadnettle) of the same compound?
**A.** Its pest or weed control at 31 g/ha is 5%.

**Q.** And the pest or weed control at 62 g/ha ([1]; 62 g ai/ha, scale 0 to 100 (0 no effect, 100 complete control), read-out: Plant response rating, Deadnettle)?
**A.** The pest or weed control at 62 g/ha was 15%.

**Q.** And the pest or weed control at 125 g/ha ([1]; 125 g ai/ha, scale 0 to 100 (0 no effect, 100 complete control), read-out: Plant response rating, Deadnettle)?
**A.** The pest or weed control at 125 g/ha was 25%.

**Q.** And the pest or weed control at 16 g/ha ([2]; 16 g ai/ha, scale 0 (no effect) to 100 (complete control), read-out: Plant response rating, Speedwell)?
**A.** The pest or weed control at 16 g/ha was 70%.

**Q.** What about the pest or weed control at 31 g/ha ([2]; 31 g ai/ha, scale 0 (no effect) to 100 (complete control), read-out: Plant response rating, Speedwell) of the same compound?
**A.** Its pest or weed control at 31 g/ha is 100%.

**Q.** And the pest or weed control at 62 g/ha ([2]; 62 g ai/ha, scale 0-100, read-out: Plant response rating, Speedwell)?
**A.** The pest or weed control at 62 g/ha was 100%.

**Q.** And the pest or weed control at 125 g/ha ([2]; 125 g ai/ha, scale 0-100, read-out: Plant response rating, Speedwell)?
**A.** The pest or weed control at 125 g/ha was 100%.

**Q.** And the pest or weed control at 16 g/ha ([3]; 16 g ai/ha, scale 0 (no effect) to 100 (complete control), read-out: Plant response rating, Buckwheat, Wild)?
**A.** The pest or weed control at 16 g/ha was 60%.

**Q.** What about the pest or weed control at 31 g/ha ([3]; 31 g ai/ha, scale 0-100, read-out: Plant response rating, Buckwheat, Wild) of the same compound?
**A.** Its pest or weed control at 31 g/ha is 35%.

**Q.** What about the pest or weed control at 62 g/ha ([3]; 62 g ai/ha, scale 0-100, read-out: Plant response rating, Buckwheat, Wild) of the same compound?
**A.** The pest or weed control at 62 g/ha was 55%.

**Q.** And the pest or weed control at 125 g/ha ([3]; 125 g ai/ha, scale 0-100, read-out: Plant response rating, Buckwheat, Wild)?
**A.** The pest or weed control at 125 g/ha was 75%.

**Q.** And the pest or weed control at 16 g/ha ([4]; 16 g ai/ha, scale 0-100, read-out: Plant response rating, Pigweed)?
**A.** Its pest or weed control at 16 g/ha is 65%.

**Q.** And the pest or weed control at 31 g/ha ([4]; 31 g ai/ha, scale 0 to 100 (0 no effect, 100 complete control), read-out: Plant response rating, Pigweed)?
**A.** Its pest or weed control at 31 g/ha is 70%.

**Q.** And the pest or weed control at 62 g/ha ([4]; 62 g ai/ha, scale 0 to 100 (0 no effect, 100 complete control), read-out: Plant response rating, Pigweed)?
**A.** The pest or weed control at 62 g/ha was 90%.

**Q.** And the pest or weed control at 125 g/ha ([4]; 125 g ai/ha, scale 0 to 100 (0 no effect, 100 complete control), read-out: Plant response rating, Pigweed)?
**A.** Its pest or weed control at 125 g/ha is 90%.

**Q.** And the pest or weed control at 16 g/ha ([5]; 16 g ai/ha)?
**A.** Its pest or weed control at 16 g/ha is 0%.

**Q.** What about the pest or weed control at 31 g/ha ([5]; 31 g ai/ha) of the same compound?
**A.** Its pest or weed control at 31 g/ha is 5%.

**Q.** What about the pest or weed control at 62 g/ha ([5]; 62 g ai/ha) of the same compound?
**A.** Its pest or weed control at 62 g/ha is 5%.

**Q.** What about the pest or weed control at 125 g/ha ([5]; 125 g ai/ha) of the same compound?
**A.** Its pest or weed control at 125 g/ha is 10%.

**Q.** And the pest or weed control at 16 g/ha ([6]; 16 g ai/ha)?
**A.** Its pest or weed control at 16 g/ha is 0%.

**Q.** What about the pest or weed control at 31 g/ha ([6]; 31 g ai/ha) of the same compound?
**A.** The pest or weed control at 31 g/ha was 0%.

**Q.** What about the pest or weed control at 62 g/ha ([6]; 62 g ai/ha) of the same compound?
**A.** Its pest or weed control at 62 g/ha is 5%.

**Q.** And the pest or weed control at 125 g/ha ([6]; 125 g ai/ha)?
**A.** Its pest or weed control at 125 g/ha is 5%.

**Q.** What about the plant injury at 16 g/ha ([7]; 16 g ai/ha, scale 0 (no effect) to 100 (complete control), read-out: Plant response rating, Oilseed Rape) of the same compound?
**A.** The plant injury at 16 g/ha was 35%.

**Q.** What about the plant injury at 31 g/ha ([7]; 31 g ai/ha, scale 0-100, read-out: Plant response rating, Oilseed Rape) of the same compound?
**A.** Its plant injury at 31 g/ha is 30%.

**Q.** What about the plant injury at 62 g/ha ([7]; 62 g ai/ha, scale 0-100, read-out: Plant response rating, Oilseed Rape) of the same compound?
**A.** The plant injury at 62 g/ha was 50%.

**Q.** What about the plant injury at 125 g/ha ([7]; 125 g ai/ha, scale 0-100, read-out: Plant response rating, Oilseed Rape) of the same compound?
**A.** Its plant injury at 125 g/ha is 65%.

**Q.** And the pest or weed control at 16 g/ha ([8]; 16 g ai/ha, scale 0-100, read-out: Plant response rating, Mustard, Wild)?
**A.** Its pest or weed control at 16 g/ha is 65%.

**Q.** And the pest or weed control at 31 g/ha ([8]; 31 g ai/ha, scale 0 to 100 (0 no effect, 100 complete control), read-out: Plant response rating, Mustard, Wild)?
**A.** The pest or weed control at 31 g/ha was 75%.

**Q.** What about the pest or weed control at 62 g/ha ([8]; 62 g ai/ha, scale 0 to 100 (0 no effect, 100 complete control), read-out: Plant response rating, Mustard, Wild) of the same compound?
**A.** Its pest or weed control at 62 g/ha is 75%.

**Q.** What about the pest or weed control at 125 g/ha ([8]; 125 g ai/ha, scale 0 to 100 (0 no effect, 100 complete control), read-out: Plant response rating, Mustard, Wild) of the same compound?
**A.** Its pest or weed control at 125 g/ha is 75%.

**Q.** And the pest or weed control at 16 g/ha ([9]; 16 g ai/ha, scale 0 (no effect) to 100 (complete control), read-out: Plant response rating, Bluegrass)?
**A.** The pest or weed control at 16 g/ha was 0%.

**Q.** And the pest or weed control at 31 g/ha ([9]; 31 g ai/ha, scale 0-100, read-out: Plant response rating, Bluegrass)?
**A.** The pest or weed control at 31 g/ha was 0%.

**Q.** And the pest or weed control at 62 g/ha ([9]; 62 g ai/ha, scale 0-100, read-out: Plant response rating, Bluegrass)?
**A.** Its pest or weed control at 62 g/ha is 0%.

**Q.** And the pest or weed control at 125 g/ha ([9]; 125 g ai/ha, scale 0-100, read-out: Plant response rating, Bluegrass)?
**A.** The pest or weed control at 125 g/ha was 10%.

**Q.** What about the pest or weed control at 16 g/ha ([10]; 16 g ai/ha, scale 0-100, read-out: Plant response rating, Ryegrass, Italian) of the same compound?
**A.** The pest or weed control at 16 g/ha was 5%.

**Q.** And the pest or weed control at 31 g/ha ([10]; 31 g ai/ha, scale 0 to 100 (0 no effect, 100 complete control), read-out: Plant response rating, Ryegrass, Italian)?
**A.** Its pest or weed control at 31 g/ha is 0%.

**Q.** What about the pest or weed control at 62 g/ha ([10]; 62 g ai/ha, scale 0 to 100 (0 no effect, 100 complete control), read-out: Plant response rating, Ryegrass, Italian) of the same compound?
**A.** The pest or weed control at 62 g/ha was 0%.

**Q.** What about the pest or weed control at 125 g/ha ([10]; 125 g ai/ha, scale 0 to 100 (0 no effect, 100 complete control), read-out: Plant response rating, Ryegrass, Italian) of the same compound?
**A.** The pest or weed control at 125 g/ha was 5%.

**Q.** And the pest or weed control at 16 g/ha ([11]; 16 g ai/ha)?
**A.** Its pest or weed control at 16 g/ha is 65%.

**Q.** What about the pest or weed control at 31 g/ha ([11]; 31 g ai/ha) of the same compound?
**A.** The pest or weed control at 31 g/ha was 70%.

**Q.** And the pest or weed control at 62 g/ha ([11]; 62 g ai/ha)?
**A.** The pest or weed control at 62 g/ha was 65%.

**Q.** What about the pest or weed control at 125 g/ha ([11]; 125 g ai/ha) of the same compound?
**A.** The pest or weed control at 125 g/ha was 80%.

Reference: US9695155B2, “Herbicidal substituted pyrimidinyloxy benzene compounds” (E. I. DU PONT DE NEMOURS AND COMPANY, priority 2013, dated 2017)
